Experimental data published in patent US20230192700A1, “PYRAZOLOPYRAZINES ACTING ON CANCERS VIA INHIBITION OF CDK12” (Bayer Aktiengesellschaft, priority 2020, published 2023).
Where two headings read alike, the source gives them in different places.

Legend:
[1] = target: T1, CDK12/CyclinK (Homo sapiens, UniProt Q9NYV4); test: CDK12/CycK high ATP kinase assay (TR-FRET); format: biochemical; settings: 2 mM ATP (high ATP); median; read-out: CDK12/CyclinK, 2 mM ATP (high ATP), IC50 - [mol/l] (median)
T1 construct: His-CDK12 (aa Q696-S1082); made in house; host or cells: Hi-5 insect cells (baculovirus co-infection with CycK and yeast CAK1)
Description: 2.2 CDK12/CycK high ATP Kinase Assay
In the context of the present invention, the term “IC50 CDK12 hATP” refers to the ICso values obtained according to the assay described in this section (2.2) herein below, i.e. the IC50 values for the inhibition of CDK12 at high ATP.
CDK12/CycK -inhibitory activity of compounds of the present invention at 2 millimol/L adenosine-tri-phosphate (ATP) was quantified employing the TR-FRET (TR-FRET=Time Resolved Fluorescence Energy Transfer) based CDK12/CycK activity inhibition assay as described in the following paragraphs.
A complex of human recombinant CDK12 and human recombinant CycK (both N-terminally His-tagged, expression and purification as described above) was used as enzyme. As substrate for the kinase reaction biotinylated peptide biotin-Ahx-KFELLPTPPLSPSRRSGL (C-terminus in amid form) was used which can be purchased e.g. form the company Biosyntan (Berlin-Buch, Germany).
For the assay 50 nanoL of a 100 fold concentrated solution of the test compound in DMSO was pipetted into either a black low volume 384 well microtiter plate or a black 1536 well microtiter plate (both Greiner Bio-One, Frickenhausen, Germany), 2 microL of a solution of CDK12/CycK in aqueous assay buffer [25 millimol/L HEPES pH 7.5, 20 millimol/L MgCl2, 5 millimol/L β-glycerophosphate, 2 millimol/L EGTA, 1.0 millimol/L dithiothreitol, 0.01% (v/v) Nonidet-P40 (Sigma), 0.01% (w/v) bovine serum albumin] were added and the mixture was incubated for 15 min at 22° C. to allow pre-binding of the test compounds to the enzyme before the start of the kinase reaction. Then the kinase reaction was started by the addition of 3 microL of a solution ATP (3.33 millimol/L=>final conc. in the 5 microL assay volume is 2 millimol/L) and substrate (1.67 micromol/L=>final conc. in the 5 microL assay volume is 1 micromol/L) in assay buffer and the resulting mixture was incubated for a reaction time of 60 min at 22° C. The concentration of CDK12/CycK was adjusted depending of the activity of the enzyme lot and was chosen appropriate to have the assay in the linear range, typical concentrations were about 0.75 nanomol/L. The reaction was stopped by the addition of 3 microL of a solution of TR-FRET detection reagents (125 nanomol/L streptavidine-XL665 [Cisbio Bioassays, Codolet, France] and 0.67 nanomol/L anti-Phospho-c-Myc (Ser 62) (E1J4K)-antibody from Cell Signalling [#13748] and 2 nanomol/L LANCE EU-W1024 labeled anti-rabbit IgG antibody [Perkin-Elmer, product no. 0083]) in an aqueous EDTA-solution (133 millimol/L EDTA, 0.27% (w/v) bovine serum albumin in 66.7 millimol/L HEPES pH 7.5).
The resulting mixture was incubated 1 h at 22° C. to allow the formation of complex between the phosphorylated biotinylated peptide and the detection reagents. Subsequently the amount of phosphorylated substrate was evaluated by measurement of the resonance energy transfer from the Eu-chelate to the streptavidine-XL. Therefore, the fluorescence emissions at 620 nm and 665 nm after excitation at 350 nm was measured in a TR-FRET reader, e.g. a Pherastar FS (BMG Labtechnologies, Offenburg, Germany) or a Viewlux (Perkin-Elmer). The ratio of the emissions at 665 nm and at […] was taken as the measure for the amount of phosphorylated substrate. The data were normalised (enzyme reaction without inhibitor=0% inhibition, all other assay components but no enzyme=100% inhibition).

[2] = system: CAL-120 human breast adenocarcinoma cells; test: Proliferation assay CAL-120 (crystal violet); format: cell-based; settings: CAL-120 cells, 4 days, median, read-out: Prolif-CAL-120— IC50 - [mol/l] (median)
Protocol: 4. Proliferation assay: MDA-MB-231, CAL-120
Human tumour cells were originally obtained from the American Type Culture Collection (ATCC), or from the Deutsche Sammlung von Mikroorganismen and Zellkulturen (DSMZ, German Collection of Microorganisms and Cell Cultures). Cultivated tumour cells (CAL-120, human breast adenocarcinoma cells, DSMZ ACC-459; MDA-M B-231, human breast cancer cells, ATCC HTB-26) were plated at a density of 4,000 cells/well in a 96-well multititer plate in 200 microL of their respective growth medium supplemented 10% fetal calf serum. After 24 hours, the cells of one plate (zero-point plate) were stained with crystal violet (see below), while the medium of the other plates was supplemented with the test substances in various concentrations (0 micromol/L, as well as in the range of 0.01-10 micromol/L; the final concentration of the solvent dimethyl sulfoxide was adjusted to 0.1%) using a Tecan HP D300 Digital Dispenser. The cells were incubated for 4 days in the presence of test substances. Cell proliferation was determined by staining the cells with crystal violet: the cells were fixed by adding 20 microL/measuring point of an 11% glutaric aldehyde solution for 15 minutes at room temperature. After three washing cycles of the fixed cells with water, the plates were dried at room temperature. The cells were stained by adding 100 microL/measuring point of a 0.1% crystal violet solution (pH 3.0). After three washing cycles of the stained cells with water, the plates were dried at room temperature. The dye was dissolved by adding 100 microL/measuring point of a 10% acetic acid solution. The extinction was determined by photometry at a wavelength of 595 nm. The change of cell number, in percent, was calculated by normalization of the measured values to the extinction values of the zero-point plate(=0%) and the extinction of the untreated (0 μM) cells(=100%). The IC50 values (inhibitory concentration at 50% of maximal effect) were determined by means of a 4 parameter fit.

T1 sequence (Q9NYV4 with tags, fused parts or gaps): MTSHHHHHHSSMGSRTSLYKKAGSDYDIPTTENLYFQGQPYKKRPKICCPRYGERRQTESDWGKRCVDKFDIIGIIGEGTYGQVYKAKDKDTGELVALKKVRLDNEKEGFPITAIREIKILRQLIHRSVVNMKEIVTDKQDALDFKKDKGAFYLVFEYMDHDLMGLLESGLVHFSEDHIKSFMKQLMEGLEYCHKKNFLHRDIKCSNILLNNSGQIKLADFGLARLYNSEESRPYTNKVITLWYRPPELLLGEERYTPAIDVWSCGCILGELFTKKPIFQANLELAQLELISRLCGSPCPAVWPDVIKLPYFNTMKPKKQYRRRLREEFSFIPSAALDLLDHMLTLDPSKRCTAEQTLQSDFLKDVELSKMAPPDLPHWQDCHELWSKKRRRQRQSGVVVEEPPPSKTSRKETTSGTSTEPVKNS
T1 sequence (O75909 with tags, fused parts or gaps partner limits assumed): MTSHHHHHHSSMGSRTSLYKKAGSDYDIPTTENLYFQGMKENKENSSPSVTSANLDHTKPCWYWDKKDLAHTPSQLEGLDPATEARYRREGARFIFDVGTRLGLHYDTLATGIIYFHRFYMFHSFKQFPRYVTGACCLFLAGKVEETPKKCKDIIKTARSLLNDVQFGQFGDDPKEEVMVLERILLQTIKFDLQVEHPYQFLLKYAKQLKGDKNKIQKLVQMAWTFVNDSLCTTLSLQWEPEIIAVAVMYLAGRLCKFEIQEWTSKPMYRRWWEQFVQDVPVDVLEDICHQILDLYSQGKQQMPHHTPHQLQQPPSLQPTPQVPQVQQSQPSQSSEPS

Compound | IC50 [1] | IC50 ([2]; Homo sapiens, CAL-120, 96 h) | IC50 [2]
Cc1cccc2[nH]c(CNc3nn(C4CCOCC4)c4nc(C5CC5)cnc34)nc12 [Example 33, 6-cyclopropyl-N-[(4-methyl-1H-benzimidazol-2-yl)methyl]-1-(oxan-4-yl)-1H-pyrazolo[3,4-b]pyrazin-3-amine] | > 20000 nM | 22.5 nM | –
Cc1ccc2[nH]c(CNc3nn(C4CCN(C)CC4)c4nc(C5CC5)cnc34)nc2c1C [Example 28, 6-cyclopropyl-N-[(4,5-dimethyl-1H-benzimidazol-2-yl)methyl]-1-(1-methylpiperidin-4-yl)-1H-pyrazolo[3,4-b]pyrazin-3-amine] | > 20000 nM | 9.54 nM | –
CN1CCC(n2nc(NCc3nc4c(F)cccc4[nH]3)c3ncc(C4CC4)nc32)CC1 [Example 3, 6-cyclopropyl-N-[(4-fluoro-1H-benzimidazol-2-yl)methyl]-1-(1-methylpiperidin-4-yl)-1H-pyrazolo[3,4-b]pyrazin-3-amine] | ≥ 11600 nM | 3.3 nM | –
c1ccc2[nH]c(CNc3nn(C4CCOC4)c4nc(C5CC5)cnc34)nc2c1 (single isomer, unassigned) [Example 17, (+) or (−)-N-[(1H-benzimidazol-2-yl)methyl]-6-cyclopropyl-1-(oxolan-3-yl)-1H-pyrazolo[3,4-b]pyrazin-3-amine] | > 20000 nM | 70.3 nM | –
CN1CCC(n2nc(NCc3nc4ccccc4[nH]3)c3ncc(C4CC4)nc32)C1 (single isomer, unassigned) [Example 78, (+) or (−)-N-[(1H-benzimidazol-2-yl)methyl]-6-cyclopropyl-1-(1-methylpyrrolidin-3-yl)-1H-pyrazolo[3,4-b]pyrazin-3-amine] | > 20000 nM | – | 11.2 nM
CC1COCCC1n1nc(NCc2nc3ccccc3[nH]2)c2ncc(C3CC3)nc21 (racemic) [Example 42, (±)-cis/trans-N-[(1H-benzimidazol-2-yl)methyl]-6-cyclopropyl-1-(3-methyloxan-4-yl)-1H-pyrazolo[3,4-b]pyrazin-3-amine] | > 20000 nM | 84.5 nM | –
CC(C)(O)CCn1nc(NCc2nc3ccccc3[nH]2)c2ncc(C3CC3)nc21 [Example 76, 4-(3-{[(1H-benzimidazol-2-yl)methyl]amino}-6-cyclopropyl-1H-pyrazolo[3,4-b]pyrazin-1-yl)-2-methylbutan-2-ol] | > 20000 nM | 55.7 nM | –
Fc1cccc2[nH]c(CNc3nn(C4CCOCC4)c4nc(C5CC5)cnc34)nc12 [Example 23, 6-cyclopropyl-N-[(4-fluoro-1H-benzimidazol-2-yl)methyl]-1-(oxan-4-yl)-1H-pyrazolo[3,4-b]pyrazin-3-amine] | 12300 nM | 15.4 nM | –
c1ccc2[nH]c(CNc3nn(C4CCOCC4)c4nc(C5CC5)cnc34)nc2c1 [Example 16, N-[(1H-benzimidazol-2-yl)methyl]-6-cyclopropyl-1-(oxan-4-yl)-1H-pyrazolo[3,4-b]pyrazin-3-amine] | > 20000 nM | 103 nM | –
CC(C)n1nc(NCc2nc3ccccc3[nH]2)c2ncc(C3CC3)nc21 [Example 14, N-[(1H-benzimidazol-2-yl)methyl]-6-cyclopropyl-1-(propan-2-yl)-1H-pyrazolo[3,4-b]pyrazin-3-amine] | > 20000 nM | 96.4 nM | –
c1ccc2[nH]c(CNc3nn(C4CCCC4)c4nc(C5CC5)cnc34)nc2c1 [Example 39, N-[(1H-benzimidazol-2-yl)methyl]-1-cyclopentyl-6-cyclopropyl-1H-pyrazolo[3,4-b]pyrazin-3-amine] | > 20000 nM | 88.8 nM | –
CN1CCC(n2nc(NCc3nc4cc(C(F)(F)F)ccc4[nH]3)c3ncc(C4CC4)nc32)CC1 [Example 25, 6-cyclopropyl-1-(1-methylpiperidin-4-yl)-N-{[5-(trifluoromethyl)-1H-benzimidazol-2-yl]methyl}-1H-pyrazolo[3,4-b]pyrazin-3-amine] | 17300 nM | 3.14 nM | –
COCCC(C)n1nc(NCc2nc3ccccc3[nH]2)c2ncc(C3CC3)nc21 (single isomer, unassigned; (-)) [Example 58, (−)-N-[(1H-benzimidazol-2-yl)methyl]-6-cyclopropyl-1-[4-methoxybutan-2-yl]-1H-pyrazolo[3,4-b]pyrazin-3-amine] | > 20000 nM | – | 156 nM
CN1CCC(n2nc(NCc3nc4c(F)c(F)ccc4[nH]3)c3ncc(C4CC4)nc32)CC1 [Example 9, 6-cyclopropyl-N-[(4,5-difluoro-1H-benzimidazol-2-yl)methyl]-1-(1-methylpiperidin-4-yl)-1H-pyrazolo[3,4-b]pyrazin-3-amine] | > 20000 nM | 6.78 nM | –
c1ccc2[nH]c(CNc3nn(C4CCOC4)c4nc(C5CC5)cnc34)nc2c1 (racemic) [Example 10, (±)-N-[(1H-benzimidazol-2-yl)methyl]-6-cyclopropyl-1-[oxolan-3-yl]-1H-pyrazolo[3,4-b]pyrazin-3-amine] | > 20000 nM | 65.7 nM | –
O[C@H]1CC[C@H](n2nc(NCc3nc4ccccc4[nH]3)c3ncc(C4CC4)nc32)CC1 [Example 50, trans-4-(3-{[(1H-benzimidazol-2-yl)methyl]amino}-6-cyclopropyl-1H-pyrazolo[3,4-b]pyrazin-1-yl)cyclohexan-1-ol] | 6170 nM | 11 nM | –
Cc1c(Cl)ccc2[nH]c(CNc3nn(C4CCN(C)CC4)c4nc(C5CC5)cnc34)nc12 [Example 21, N-[(5-chloro-4-methyl-1H-benzimidazol-2-yl)methyl]-6-cyclopropyl-1-(1-methylpiperidin-4-yl)-1H-pyrazolo[3,4-b]pyrazin-3-amine] | > 20000 nM | 7.93 nM | –
CN1CCC(n2nc(NCc3nc4cc(F)ccc4[nH]3)c3ncc(C4CC4)nc32)CC1 [Example 4, 6-cyclopropyl-N-[(5-fluoro-1H-benzimidazol-2-yl)methyl]-1-(1-methylpiperidin-4-yl)-1H-pyrazolo[3,4-b]pyrazin-3-amine] | > 20000 nM | 16.3 nM | –
COc1cccc2[nH]c(CNc3nn(C4CCN(C)CC4)c4nc(C5CC5)cnc34)nc12 [Example 2, 6-cyclopropyl-N-[(4-methoxy-1H-benzimidazol-2-yl)methyl]-1-(1-methylpiperidin-4-yl)-1H-pyrazolo[3,4-b]pyrazin-3-amine] | > 20000 nM | 11 nM | –
